Results reported in patent publication US20100247602A1, “METHOD OF REDUCING THE EFFECTS OF CYTOSTATIC DRUGS ON BONE MARROW DERIVED CELLS, AND METHODS OF SCREENING” (priority 2007, published 2010).
“Also recorded” adds a separate entry of the source.

How the values were obtained:
[1] = tested on: bone marrow derived cells (BMDCs); experiment: Differentiation profile of BMDCs by flow cytometry; assay type: cell-based, mouse (C57BL/6 female mice); conditions: for percentage of CD117+ cells: E2 alone (10^−9M) or in combination with paclitaxel (5×10^−9 M), one week; for total or sub-populations of CD44+ cells: one week treatment, paclitaxel 5×10^-9M, rapamycin 10^-10M, alone or in combination
Protocol: (§1) BMDCs were cultured and isolated as described above.
BMDCs were plated and grown during 7 days before treatment (stimulation). Rapamycin (LC Laboratories) or paclitaxel (LC laboratories) were added for a one week treatment at IC50 concentration. Afterward, cells were washed twice in PBS and non specific binding sites were blocked with 5% normal rat serum (Jackson Immunoresearch Laboratories Inc.). To evaluate the differentiation profile of the BMDCs, quadruple stainings were performed as follow: 1) for the HSC allophycocyanin (APC, Caltag Laboratories, Carlsbad, Calif.) conjugated monoclonal rat-anti-mouse CD117, fluorescein isothiocyanate (FITC, BD pharmingen, San Jose, Calif.) conjugated monoclonal rat anti-mouse CD31 (platelet endothelial cell adhesion molecules-1, PECAM), biotin conjugated monoclonal rat anti-mouse CD34 (Bio, BD pharmingen), growth factor receptor-2 (VEGFR2); and 2) for the stromal cells: APC (Abcam Inc., Cambridge Mass.) conjugated monoclonal rat anti-mouse CD90, FITC conjugated (BD pharmingen) monoclonal rat anti-mouse CD44 (hyaluronic acid receptor), PE conjugated monoclonal rat anti-mouse vascular cell adhesion molecule (V-CAM/CD106, Abcam Inc.), biotin (Abcam Inc.) conjugated monoclonal rat anti-mouse CD105 (Endoglin). Corresponding isotype antibodies were used as negative controls; monoclonal rat anti-mouse IgG2a-APC (Abcam Inc.), monoclonal rat anti-mouse IgG2a-FITC, (Abcam Inc.), monoclonal rat anti-mouse IgG2a-PE (BD pharmingen), monoclonal rat anti-mouse IgG2a-Bio (Abcam Inc.). To analyze the biotin conjugated antibody, a secondary antibody streptavidine-ECD (Beckman coulter, Fullerton, Calif.) was used. Data acquisition was performed using 1×10^6 events per sample. Of these events, only low-to-medium FSC (forward scattered channel) and SSC (side scattered channel) singlets were gated for analysis of BM subpopulations. In all cases, gated singlets represented 80 to 90% of acquired events. The acquisition and analysis were performed on an Epics Altra cytometer from Beckman using the EXPO™ 32 system ADC software (Beckman Coulter, Fullerton, Calif.).

ERβ = experiment: Western blot, ERβ expression in BMDCs / mBMPC; assay type: cell-based, mouse
Protocol: (§2) Membranes were stripped with Re-Blot Plus™ (International Chemicon) and total protein expression was determined with a goat polyclonal β-actin (1:1000 dilution, Santa Cruz Biotechnology Inc.).

[2] = tested on: bone marrow derived cells (BMDCs); experiment: Necrosis and apoptosis levels (annexin V / propidium iodide flow cytometry); assay type: cell-based, mouse (C57BL/6 female mice); conditions: for number of annexin V positive cells: drug at IC90 dose, 48 hrs
Protocol: After being cultured and isolated as described above, BMDCs were plated in 12-well culture plate. […] The cells were analyzed 24, 48 and 72 hours later after staining with FITC-conjugated annexin V (Alexis biochemical, San Diego, Calif.) and propidium iodide (PI, Sigma). Acquisition and analysis were performed on an Epics Altra cytometer as described in the section above “Analysis of the differentiation profile”.
In order to evaluate the effect of E2, paclitaxel or rapamycin on early apoptosis, late apoptosis and necrosis, BMDC were treated with either E2, paclitaxel or rapamycin and stained with annexin V and propodium iodine. Cells positive for annexin V only are considered in the early phases of apoptosis while cells positive for propodium iodine only are in necrosis. Cells which stained for both annexin V and propiodium iodine are in a more advanced apoptotic process (FIG. 6). The effect of E2 on the levels of apoptotic and necrotic cells in rapamycin or paclitaxel-treated cells was evaluated (FIG. 7)

[3] = tested on: bone marrow derived cells (BMDCs)
Text: Six-week old C57BL/6 female mice (Jackson Laboratoiries, Bar Harbor, Mass.) were used as bone marrow donors. The mice were euthanized by a ketamine hydrochloride (Bioniche, Belleville, ON) and xylazine (Rompum, Bayer's Inc, Toronto, ON) injections. Total bone marrow cells were collected from femurs and tibia, pooled, and washed twice with phosphate-buffered saline (PBS, Invitrogen corp., Carlsbad, Calif.) contained 2% fetal bovine serum (FBS, Hyclone Laboratories, Logan, Utah). All the bone marrow derived cells (BMDCs) were plated in 6-wells culture plates (Corning, Corning, N.Y.) precoated with rat fibronectin (Calbiochem, San Diego, Calif.), in Hematopoietic Growth Medium (HPGM Lonza, Walkersvelle, Md.) contained 2% fetal bovine serum (FBS, Hyclone Laboratories) and antibiotics (1% penicillin-streptomycin, Invitrogen corp.). Cells were grown in presence of 10 ng/mL platelet derived growth factor (PDGF, Peprotech. Inc, Rocky Hill, N.J.) and 10 ng/mL […] (EGF, Peprotech. Inc.) during the first 7 days. The experimental protocol was approved by the animal care committee of the Montreal Heart Institute.
BMDCs were cultured and isolated as described above. At day 7, complete culture medium was replaced by an incomplete culture medium: HPGM medium, 2% fetal bovine serum ([…] EGF and PDGF), and 1% antibiotics (penicillin and streptomycin) with or without E2 (10^−10 M to 10^−6 M) (Sigma) and/or rapamycin (10^−11M to 10^−6 M) (LC Laboratories, Woburn, Mass.) or paclitaxel (10^−11M to 10^−6 M) (LC laboratories) for another 7 days. In the case of combined treatment, the E2 was added 24 h prior the addition of the drug. First medium change was performed four days after plating and each following three days for a total of 14 days in culture.
After this treatment, the cells were removed from the 6-well culture plate using a 0.02% solution of (ethylenedinitrilo) tetraacetic acid (EDTA, Sigma) and diluted 1:1 in Trypan blue (Invitrogen corp.) before cell count with a hemacytometer (Hausser Bright-line). Total cells number, white cells and blue stained cells were counted. The proliferation rate was defined as the total number of cells over the number of cells at day 0 of the initiation of the treatment. The survival rate was defined as the number of white cells among the total cell population. The mortality rate was defined as the percentage of blue cells (dead cells) among the total cell population. […] The combination assay was achieved by a 24-hour pretreatment of BMDCs with different concentrations of E2 (10^−8 to 10^−10 M) and the drug was added at its IC50 concentration for a one week treatment. After this time, cells were processed as described above.

[4] = tested on: bone marrow derived cells (BMDCs); experiment: Proliferation assay of BMDCs (cell count with trypan blue); assay type: cell-based, mouse (C57BL/6 female mice); conditions: for IC50: Mus musculus, BMDC, 168 h, one week treatment, cellular count, read-out: IC50 for cell growth
Protocol: as §1
After this time, cells were processed as described above.

[5] = tested on: ERα and ERβ expressed by BMDCs; experiment: Western blot, ratio of ERα expression over ERβ in BMDCs; assay type: cell-based, mouse (C57BL/6 female mice); conditions: 24-hour stimulation, at 10^−8 and 10^−7M
Protocol: as §2

ERα = experiment: Western blot, ERα expression in BMDCs / mBMPC; conditions: paclitaxel-treated cells, 24 h, 10^−8 and 10^−7M

C[C@]12CC[C@@H]3c4ccc(O)cc4CC[C@H]3[C@@H]1CC[C@@H]2O [E2, 17-beta-estradiol]
percentage of CD117+ cells [1]: tended to increase; also recorded: increases | percentage of CD117+ cells ([1]; listed as Estradiol): increase | level (%) of CD117+ cells in paclitaxel-treated BMDCs ([1]; in the presence of E2 (24 h pre-treatment), paclitaxel 5×10^−9 M): higher level | total or sub-populations of CD44+ cells [1]: no effect | number of CD14+ cells ([1]; two weeks in culture including one week with various doses of E2): does not influence | regulation of ERβ expression (ERβ; mBMPC, 24-hour stimulation with various doses of E2 (not shown)): No regulation | apoptotic and necrotic cells rates ([2]; 1 week incubation, alone or in combination with E2, flow cytometry): no appreciable differences | percentage of annexin V positive cells ([2]; E2 combined with rapamycin IC50, 48 hrs, compared to rapamycin IC50 alone): tended to reduce | blocking of the drug-induced (IC90) increase of annexin V positive cells ([2]; E2 combined with rapamycin or paclitaxel at IC90, 48 hrs stimulations): could not be blocked | dead cells (percentage of dead cells) [3]: not affected | reduction of mortality rate [3]: 7-11% | improvement of survival rate ([3]; 10^−10M E2 added to rapamycin or paclitaxel at IC50, one week, compared to cells treated with the drug only): about 30% | number of living cells ([4]; one-week treatment with a dose range of E2, compared to cells maintained in HPGM): not affected

CC(=O)O[C@H]1C(=O)[C@@]2(C)[C@H]([C@H](OC(=O)c3ccccc3)[C@]3(O)C[C@H](OC(=O)[C@H](O)[C@@H](NC(=O)c4ccccc4)c4ccccc4)C(C)=C1C3(C)C)[C@]1(OC(C)=O)CO[C@@H]1C[C@@H]2O [paclitaxel]
drop in ERα/ERβ ratio [5]: up to 50% | total or sub-populations of CD44+ cells [1]: no effect | differentiation profile of CD117+ or CD44+ ([1]; one-week treatment at IC50 concentration): does not affect | ERβ expression (ERβ; paclitaxel-treated cells, 24 h, 10^−8 and 10^−7M): induction | number of annexin V positive cells [2]: increased significantly | ERα expression (ERα): decrease | mortality rate, drug alone [3]: not observed | toxicity on bone marrow derived cells [3]: toxic | effect on proliferation at very low doses ([4]; BMDCs, one week, very low doses): proliferative effect | IC50 ([4]; BMDCs): 5 nM

CO[C@H]1C[C@@H]2CC[C@@H](C)[C@@](O)(O2)C(=O)C(=O)N2CCCC[C@H]2C(=O)O[C@H]([C@H](C)C[C@@H]2CC[C@@H](O)[C@H](OC)C2)CC(=O)[C@H](C)/C=C(\C)[C@@H](O)[C@@H](OC)C(=O)[C@H](C)C[C@H](C)/C=C/C=C/C=C/1C [rapamycin]
total or sub-populations of CD44+ cells [1]: no effect | number of annexin V positive cells [2]: increased significantly | mortality rate, drug alone [3]: significantly increased | toxicity on bone marrow derived cells [3]: toxic | IC50 ([4]; BMDCs): 0.1 nM
